Data as given in ChEMBL document CHEMBL5550221, “Dual 5-HT2A and 5-HT2C Receptor Inverse Agonist That Affords In Vivo Antipsychotic Efficacy with Minimal hERG Inhibition for the Treatment of Dementia-Related Psychosis” (J Med Chem, 2024).
Activity calls are given as the source filed them. The rule behind the calls is not given here.

How the values were obtained:
in vitro [1] = conditions: rat, liver microsomes
Description: Metabolic stability in rat liver microsomes assessed as compound remaining measured after 30 mins

in vitro [2] = conditions: human, liver microsomes
Description: Metabolic stability in human liver microsomes assessed as compound remaining measured after 30 mins

physchem = conditions: 1-octanol/phosphate buffer, pH 7.4
[3] = Dissociation constant, pKa of the compound in DMSO solution by capillary electrophoresis; type: physicochemical
Rattus norvegicus [4] = assay: Induction of dialysate dopamine level in male Wistar rat prefrontal cortex at 3 to 10 mg/kg, sc measured upto 120 mins after treatment by microdialysis study; type: functional, organism-based; conditions: dose 3-10 mg/kg
Rattus norvegicus [5] = assay: In vivo receptor occupancy at 5-HT2A receptor in sc dosed Wistar rat brain in presence of MDL-100907 non-radiolabeled tracer measured pretreated for 45 mins before MDL-100907 challenge measured after 15 mins; type: functional, organism-based; conditions: dose 0.1-30 mg/kg, time 60.0 min
Rattus norvegicus [6] = assay: Induction of dialysate dopamine level in male Wistar rat prefrontal cortex at 10 mg/kg, sc measured upto 120 mins after treatment by microdialysis study; type: functional, organism-based
Rattus norvegicus [7] = assay: Antipsychotic efficacy against MK-801-induced locomotor hyperactivity rat model assessed as reduction in locomotor activity at 30 mg/kg, sc pretreated for 45 mins before MK-801 challenge measured after 15 mins; type: functional, organism-based; conditions: time 60.0 min
Rattus norvegicus [8] = assay: Induction of dialysate dopamine level in male Wistar rat prefrontal cortex at 30 mg/kg, sc measured upto 120 mins after treatment by microdialysis study; type: functional, organism-based
Rattus norvegicus [9] = assay: Induction of dialysate dopamine level in male Wistar rat prefrontal cortex at 3 mg/kg, sc measured upto 120 mins after treatment by microdialysis study; type: functional, organism-based

Row | Structure (SMILES) | remaining at 0.5 h (in vitro [1]) | remaining at 0.5 h (in vitro [2]) | logD (physchem) | pKa [3] | Activity (Rattus norvegicus [4]) | Activity (Rattus norvegicus [5]) | Activity (Rattus norvegicus [6]) | Activity (Rattus norvegicus [7]) | Activity (Rattus norvegicus [8]) | Activity (Rattus norvegicus [9])
1 | CC(C)COc1ccc(CNC(=O)N(Cc2ccc(F)cc2)[C@H]2CCN(C)C[C@@H]2F)cc1 | 6.1% | 7.9% | 4.9 | 6.2 | – | – | – | – | – | –
2 | CC(C)COc1ccc(CNC(=O)N(Cc2ccc(F)cc2)[C@H]2CCN(C)CC23CC3)cc1 | 48% | 48% | 3 | 8.7 | – | – | – | – | – | –
3 | CC(C)COc1ccc(CNC(=O)N(Cc2ccc(F)cc2)[C@H]2CCN(C)C[C@H]2F)cc1 | 27% | 34% | 4 | 7.2 | – | – | – | – | – | –
4 | Cc1cc2c(cc1Cl)N(C(=O)Nc1ccc(Oc3cccnc3C)nc1)CC2 | – | – | – | – | Active | – | – | – | – | –
5 | CCCOc1ccc(CNC(=O)N(Cc2ccn(C)n2)C2CCN(C)CC2)cc1 | 92% | 102% | 1.2 | – | – | – | – | – | – | –
6 | CC(C)COc1ccc(CNC(=O)N(Cc2ccc(F)cc2)C2CCN(C)CC2)cc1 [PIMAVANSERIN] | 90% | 89% | 2.8 | 8.4 | – | Dose-Dependent Effect | inactive | Active | Active | inactive
7 | CC(C)COc1ccc(CNC(=O)N(Cc2ccn(C)n2)[C@H]2CCN(C)CC23CC3)cc1 | 47% | 88% | 1.7 | – | – | – | – | – | – | –
8 | CC(C)COc1ccc(CNC(=O)N(Cc2ccc(F)cn2)[C@H]2CCN(C)CC23CC3)cc1 | 64% | 68% | 2.5 | – | – | – | – | – | – | –
